The subject of data set [1] is NADH-dehydrogenase complex. To be noted: interferes with redox function of NADH-dehydrogenase complex, thus mitochondrial oxidations; cited from earlier work.
For data set [2] the following is noted: cited from earlier work.
The nature of data set [3]: adhesion to intestinal mucosa / absorption. It is filed as in vivo. To be noted: rhein found to adhere, should thus be relatively poorly absorbed.
Data set [4] can be described thus: side effects in all clinical trials to date. It is filed as in vivo, human. The source says: In all clinical trials carried out to date with diacetylrhein side effects have been unsignificant.
A further data set is described as follows: treatment of MS patients. It is filed as in vivo. The note with it: four human patients; two daily doses of 50 mg, ingested. The protocol:
Four human patients suffering from MS were treated with diacetylrhein. They were treated by ingesting two daily doses of 50 mg diacetylrhein.

Data set [5] can be described thus: treatment of an ALS patient. The data set is classed as in vivo, human. To be noted: one patient, fairly advanced stage; six months; daily doses increasing up to 150 mg. On the procedure: A human patient suffering from ALS in a fairly advanced stage was treated with diacetylrhein over a period of six months. The diacetylrhein was ingested in daily doses increasing up to 150 mg daily.

Data set [6] is described as follows: acute toxicity trial in mice. It is filed as in vivo. To be noted: 26 mice; doses up to about 3000 mg per kg per day. The protocol: In an acute toxicity trial, 1,8-diacetoxy-3-carboxyanthraquinone (diacetylrhein) was administered to 26 mice in doses of up to about 3000 mg per kg per day.
A short description of data set [7]: clinical tests on arthritis patients. The data set is classed as in vivo, human. The source says: Clinical tests have been carried out on arthritis patients with extremely encouraging results.
Data set [8] is described as follows: treatment of osteoarthritis patients. The data set is classed as in vivo, human. The note with it: one patient, severe osteoarthritis across lower back. On the procedure: (§1) A human patient having severe osteoarthritis (established by X-ray, CSF and rheumatoid factor assessments) across the lower back was treated with diacetylrhein. The patient had greatly restricted torsal rotation and a notable pain in their back and legs after remaining seated for 30 to 60 minutes. The patient was treated by ingesting two daily doses of 50 mg of diacetylrhein.

Data set [9] is described as follows: treatment of patients with rheumatoid arthritis of the hands. The data set is classed as in vivo, human. The note with it: three cases; 50 mg twice daily for between five and ten days. The protocol: In three cases, patients with rheumatoid arthritis of the hands, having swollen fingers and painful joints, were treated with 50 mg of diacetylrhein, twice daily for between five and ten days.

Data set [10] can be described thus: clinical trials in MS and ALS patients. The data set is classed as in vivo, human. To be noted: patients suffering from MS and ALS. From the text:
Clinical trials are being carried out in which patients suffering from MS and ALS are being treated with diacetylrhein.

Data set [11] can be described thus: human ingestion of diacetylrhein for 15 months, side effects. It is filed as in vivo. To be noted: about 100 mg per day. On the procedure:
as §1

The mark [12] stands for this setting: two daily doses of 50 mg, ingested.

Structures are written as SMILES.

Regarding `O=C(O)c1cc(O)c2c(c1)C(=O)c1cccc(O)c1C2=O` [Rhein, 1,8-dihydroxyanthra-quinone-3-carboxylic acid], in data set [1], the “inhibition of NADH-linked oxidation” value is listed as “inhibitor of NADH-linked oxidation”. Besides, the toxicity result in data set [2] (oral ingestion) is recorded as “relatively non-toxic”. For the same molecule, in [2] (taken for long periods of time, in the dosage required), the “side-effects on long-term intake” value is “without any apparent side-effects”. For the same molecule, the “adhesion to the intestinal mucosa” value in data set [3] was “adheres strongly to the intestinal mucosa”.
Take `CC(=O)Oc1cccc2c1C(=O)c1c(OC(C)=O)cc(C(=O)O)cc1C2=O` [diacetylrhein, 1,8-diacetoxy-3-carboxyanthraquinone]: in [4] (all clinical trials carried out to date), the side effects entry is on record as “unsignificant”. Besides, the “only side effect encountered” value in data set [4] (all clinical trials to date, eliminated by reducing the dosage) is recorded as “some diarrhoea”. In addition, the “pain and limb unsteadiness” value in “treatment of MS patients” was “The pain and a large part of the limb unsteadiness disappeared within seven to ten days of initiating treatment”. In addition, in [5], the “deterioration: unsteadiness of gait and weakness of voice” value is listed as “substantially inhibited”; the stabilisation of condition result was “substantially stabilised”. Also, the deaths entry in [6] was “None of the mice died”. The “failure to respond to treatment” value in data set [7] (arthritis patients) is “There has almost never been a failure to respond to this treatment”. Further, the “need for Charnley Hip Operation” value in data set [7] (patients with arthritis of the hip) is recorded as “sufficient progress for this to be unnecessary”. The “condition with continued treatment” value in data set [8] (continued treatment) is on record as “maintained their improved condition”. In addition, in [8] (setting [12]), the onset of effect result was “An effect was noted on the fourth and fifth days”; the “pain, torsal rotation and early morning stiffness” value was “became pain free with restored torsal rotation and without early morning stiffness”. Also, in data set [9], the “finger thickness (swelling)” value is given as “The fingers rapidly returned to normal thickness”; the “pain in the joints” value was “the pain in the joints disappeared and was absent even when these were submitted to pressure”. Besides, the “results of clinical trials” value in data set [10] was “most encouraging”. Further, the untoward effects entry in data set [11] is “No untoward effects were noted”.
